# According to patent publication US20230250084A1, “PYRAZOLYL PYRIMIDINONE COMPOUNDS AND THE USES THEREOF” (Purdue Research Foundation, priority 2019, published 2023):
# Read-outs that look alike come from different tables or passages of the source.
# Columns and labels:
# [1] = molecular target: AC8 (Homo sapiens, UniProt P40145); assay: cAMP accumulation (HTRF) in HEK cells stably expressing AC8, stimulated with A23187; type: cell-based; design: expressed in transfected cells; host or cells: HEK cells stably expressing AC8 (HEK-AC8), hygromycin B selection; details: Table 1; for IC50: HEK-AC8 cells, A23187-stimulated cAMP accumulation; for Max AC8 Inh (%): maximum inhibition of AC8
# Sequence of AC8 (P40145 whole entry, species assumed): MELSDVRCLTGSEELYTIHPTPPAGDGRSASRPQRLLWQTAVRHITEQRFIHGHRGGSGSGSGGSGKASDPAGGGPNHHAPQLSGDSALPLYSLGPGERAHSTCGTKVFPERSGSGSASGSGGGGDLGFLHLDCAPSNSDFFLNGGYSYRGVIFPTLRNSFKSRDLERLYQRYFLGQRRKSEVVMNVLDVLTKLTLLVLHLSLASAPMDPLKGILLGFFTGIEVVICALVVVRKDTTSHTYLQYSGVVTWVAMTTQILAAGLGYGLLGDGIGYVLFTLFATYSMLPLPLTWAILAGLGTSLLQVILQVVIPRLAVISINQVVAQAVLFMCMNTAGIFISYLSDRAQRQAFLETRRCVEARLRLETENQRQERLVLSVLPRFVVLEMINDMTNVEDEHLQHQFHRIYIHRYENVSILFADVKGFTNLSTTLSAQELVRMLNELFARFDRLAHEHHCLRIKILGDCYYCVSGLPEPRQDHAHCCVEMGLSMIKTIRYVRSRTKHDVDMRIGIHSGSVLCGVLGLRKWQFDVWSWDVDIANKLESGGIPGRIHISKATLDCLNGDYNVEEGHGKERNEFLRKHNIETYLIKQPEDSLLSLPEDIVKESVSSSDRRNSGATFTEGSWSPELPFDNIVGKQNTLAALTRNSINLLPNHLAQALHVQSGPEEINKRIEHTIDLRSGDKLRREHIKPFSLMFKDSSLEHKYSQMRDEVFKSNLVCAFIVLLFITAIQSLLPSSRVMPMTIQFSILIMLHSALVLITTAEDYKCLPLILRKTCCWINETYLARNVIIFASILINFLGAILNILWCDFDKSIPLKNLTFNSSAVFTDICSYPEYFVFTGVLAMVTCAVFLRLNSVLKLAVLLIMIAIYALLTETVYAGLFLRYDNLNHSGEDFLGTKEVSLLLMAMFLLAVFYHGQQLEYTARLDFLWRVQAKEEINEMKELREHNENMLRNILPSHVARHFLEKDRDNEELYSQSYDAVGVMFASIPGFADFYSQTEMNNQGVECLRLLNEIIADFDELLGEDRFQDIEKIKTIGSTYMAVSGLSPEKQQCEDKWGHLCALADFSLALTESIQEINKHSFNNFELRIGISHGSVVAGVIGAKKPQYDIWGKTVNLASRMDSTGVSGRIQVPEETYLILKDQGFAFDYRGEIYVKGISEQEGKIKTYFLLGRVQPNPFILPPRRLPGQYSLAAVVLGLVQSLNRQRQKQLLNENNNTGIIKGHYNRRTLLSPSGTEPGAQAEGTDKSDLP
# Method: (§1) The primary technology we employed to measure cAMP accumulation was a homogenous time-resolved fluorescence (HTRF) assay, the same technology utilized in the primary screen. […]
# (§2) Briefly, cryopreserved cells were thawed, resuspended in optiMEM (Life Technologies), and plated in white, flat bottom, low-volume, tissue culture-treated 384 well plates (PerkinElmer, Shelton, Conn.). Plates with cells were incubated in a 37° C. humidified incubator for 1 h. Inhibitors were added and plates were incubated at room temperature for 30 min followed by the addition of AC stimulants in the presence of 500 μM IBMX. Cells were incubated at room temperature for 1 h and cAMP accumulation was measured using Cisbio's cAMP kit (Cisbio Bioassays, Bedford, Mass.) according to the manufacturer's instructions.
# [2] = molecular target: AC1 (Homo sapiens, UniProt Q08828); assay: cAMP accumulation (HTRF) in HEK cells stably expressing AC1, stimulated with A23187; type: cell-based; design: expressed in transfected cells; host or cells: HEK cells stably expressing AC1 (HEK-AC1), G418 selection
# Sequence of AC1 (Q08828 whole entry): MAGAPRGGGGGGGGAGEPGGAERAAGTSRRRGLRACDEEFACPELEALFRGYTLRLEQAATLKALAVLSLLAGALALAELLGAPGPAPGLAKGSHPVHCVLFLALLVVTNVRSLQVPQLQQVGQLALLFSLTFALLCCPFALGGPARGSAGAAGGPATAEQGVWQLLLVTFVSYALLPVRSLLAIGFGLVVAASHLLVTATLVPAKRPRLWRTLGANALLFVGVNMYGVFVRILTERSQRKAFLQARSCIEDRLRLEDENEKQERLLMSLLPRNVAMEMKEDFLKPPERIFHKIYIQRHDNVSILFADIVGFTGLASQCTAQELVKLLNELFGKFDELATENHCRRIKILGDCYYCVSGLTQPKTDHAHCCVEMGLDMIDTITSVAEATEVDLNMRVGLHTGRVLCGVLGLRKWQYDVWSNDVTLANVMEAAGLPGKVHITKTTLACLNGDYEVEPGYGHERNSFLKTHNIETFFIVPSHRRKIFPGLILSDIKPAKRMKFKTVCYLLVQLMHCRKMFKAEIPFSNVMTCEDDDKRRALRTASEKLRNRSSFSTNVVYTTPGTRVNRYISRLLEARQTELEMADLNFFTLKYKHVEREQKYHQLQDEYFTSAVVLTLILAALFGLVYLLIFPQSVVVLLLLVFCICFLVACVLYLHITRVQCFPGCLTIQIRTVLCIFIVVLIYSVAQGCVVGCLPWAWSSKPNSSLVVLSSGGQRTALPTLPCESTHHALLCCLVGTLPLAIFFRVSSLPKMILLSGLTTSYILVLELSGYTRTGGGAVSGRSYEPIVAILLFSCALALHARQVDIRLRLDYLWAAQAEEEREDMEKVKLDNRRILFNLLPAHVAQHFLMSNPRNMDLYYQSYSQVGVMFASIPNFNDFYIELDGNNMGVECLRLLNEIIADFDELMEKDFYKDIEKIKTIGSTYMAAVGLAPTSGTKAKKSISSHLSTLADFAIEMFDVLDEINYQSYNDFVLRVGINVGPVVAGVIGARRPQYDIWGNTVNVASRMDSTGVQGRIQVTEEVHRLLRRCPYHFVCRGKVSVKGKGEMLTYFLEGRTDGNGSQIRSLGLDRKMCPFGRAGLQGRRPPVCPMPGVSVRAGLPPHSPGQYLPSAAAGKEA
# Method: The screen was carried out using HEK cells stably expressing AC1 (HEK-AC1) and cyclic AMP accumulation was stimulated using the Ca^2+ ionophore, A23187 to selectively activate AC1. […]
# as §1, §2
# [3] = Table 1, HEK-AC1 cells, A23187-stimulated cAMP accumulation, read-out: AC1 IC50
smiles,measurement,setting,value
"CCc1ccc(C(=O)Nc2cc(C)nn2-c2nc(CC)cc(=O)[nH]2)cc1 [AC10082, 4-ethyl-N-(1-(6-ethyl-4-oxo-1,4-dihydropyrimidin-2-yl)-3-methyl-1H-pyrazol-5-yl)benzamide]",IC50,[1],37 µM
same,Max AC8 Inh (%),[1],19%
same,IC50,[2]; [3],500 nM
"CCc1cc(=O)[nH]c(-n2nc(C)cc2NC(=O)c2ccc(OC)cc2)n1 [AC10076, N-(1-(6-ethyl-4-oxo-1,4-dihydropyrimidin-2-yl)-3-methyl-1H-pyrazol-5-yl)-4-methoxybenzamide]",IC50,[1],33 µM
same,Max AC8 Inh (%),[1],0%
"CCc1cc(=O)[nH]c(-n2nc(C)cc2NC(=O)c2cccc(C(F)(F)F)c2)n1 [AC10089, N-(1-(4-ethyl-6-oxo-1,6-dihydropyrimidin-2-yl)-3-methyl-1H-pyrazol-5-yl)-3-(trifluoromethyl)benzamide]",IC50,[1],18 µM
same,Max AC8 Inh (%),[1],41%
same,IC50,[2]; [3],700 nM
"CCc1cc(=O)[nH]c(-n2nc(C)cc2NC(=O)c2cccc(F)c2)n1 [AC10091, N-(1-(6-ethyl-4-oxo-1,4-dihydropyrimidin-2-yl)-3-methyl-1H-pyrazol-5-yl)-3-fluorobenzamide]",IC50,[1],12 µM
same,Max AC8 Inh (%),[1],55%
same,IC50,[2]; [3],1200 nM
"CCc1cc(=O)[nH]c(-n2nc(C)cc2NC(=O)c2ccc(OCOC)cc2)n1 [AC10071, N-(1-(6-ethyl-4-oxo-1,4-dihydropyrimidin-2-yl)-3-methyl-1H-pyrazol-5-yl)-4-(methoxymethoxy)benzamide]",IC50,[1],23 µM
same,IC50,[2]; [3],3200 nM
"CCc1cc(=O)[nH]c(-n2nc(C)cc2NC(=O)c2ccc(Cl)cc2)n1 [AC10058, 4-chloro-N-(1-(6-ethyl-4-oxo-1,4-dihydropyrimidin-2-yl)-3-methyl-1H-pyrazol-5-yl)benzamide]",IC50,[1],9.5 µM
same,Max AC8 Inh (%),[1],32%
same,IC50,[2]; [3],300 nM
"CCc1cc(=O)[nH]c(-n2nc(C)cc2NC(=O)c2ccccc2F)n1 [AC10048, N-(1-(6-ethyl-4-oxo-1,4-dihydropyrimidin-2-yl)-3-methyl-1H-pyrazol-5-yl)-2-fluorobenzamide]",Max AC8 Inh (%),[1],46%
same,IC50,[2]; [3],1500 nM
"CCc1cc(=O)[nH]c(-n2nc(C)cc2NC(=O)c2cccc(C)c2)n1 [AC10079, N-(1-(6-ethyl-4-oxo-1,4-dihydropyrimidin-2-yl)-3-methyl-1H-pyrazol-5-yl)-3-methylbenzamide]",IC50,[1],27 µM
same,Max AC8 Inh (%),[1],27%
same,IC50,[2],400 nM
"CCc1cc(=O)[nH]c(-n2nc(C)cc2NC(=O)c2cccc(SC)c2)n1 [AC10088, N-(1-(4-ethyl-6-oxo-1,6-dihydropyrimidin-2-yl)-3-methyl-1H-pyrazol-5-yl)-3-(methylthio)benzamide]",IC50,[1],9.7 µM
same,Max AC8 Inh (%),[1],52%
same,IC50,[2]; [3],400 nM
"CCc1cccc(C(=O)Nc2cc(C)nn2-c2nc(CC)cc(=O)[nH]2)c1 [AC10081, 3-ethyl-N-(1-(6-ethyl-4-oxo-1,4-dihydropyrimidin-2-yl)-3-methyl-1H-pyrazol-5-yl)benzamide]",Max AC8 Inh (%),[1],12%
same,IC50,[2]; [3],400 nM
"CCc1cc(=O)[nH]c(-n2nc(C)cc2NC(=O)Cc2cccc(C)c2)n1 [AC10075, N-(1-(6-ethyl-4-oxo-1,4-dihydropyrimidin-2-yl)-3-methyl-1H-pyrazol-5-yl)-2-(m-tolyl)acetamide]",IC50,[1],50 µM
same,Max AC8 Inh (%),[1],59%
same,IC50,[2]; [3],10000 nM
"CCc1cc(=O)[nH]c(-n2nc(C)cc2NC(=O)c2ccccc2CC)n1 [AC10074, 2-ethyl-N-(1-(6-ethyl-4-oxo-1,4-dihydropyrimidin-2-yl)-3-methyl-1H-pyrazol-5-yl)benzamide]",IC50,[1],50 µM
same,Max AC8 Inh (%),[1],21%
same,IC50,[2]; [3],2800 nM
"CCc1cc(=O)[nH]c(-n2nc(C)cc2NC(=O)c2ccc(C)cc2)n1 [AC10080, N-(1-(6-ethyl-4-oxo-1,4-dihydropyrimidin-2-yl)-3-methyl-1H-pyrazol-5-yl)-4-methylbenzamide]",IC50,[1],48 µM
same,Max AC8 Inh (%),[1],27%
same,IC50,[2]; [3],700 nM
"CCc1cc(=O)[nH]c(-n2nc(C)cc2NC(=O)c2ccccc2)n1 [AC10068, N-(1-(6-ethyl-4-oxo-1,4-dihydropyrimidin-2-yl)-3-methyl-1H-pyrazol-5-yl)benzamide]",Max AC8 Inh (%),[1],0%
same,IC50,[2]; [3],2700 nM
"CCc1cc(=O)[nH]c(-n2nc(C)cc2NC(=O)c2cccc(C(C)C)c2)n1 [AC10087, N-(1-(6-ethyl-4-oxo-1,4-dihydropyrimidin-2-yl)-3-methyl-1H-pyrazol-5-yl)-3-isopropylbenzamide]",IC50,[1],24 µM
same,Max AC8 Inh (%),[1],28%
same,IC50,[2]; [3],400 nM
"CCc1cc(=O)[nH]c(-n2nc(C)cc2NC(=O)c2cccc(Cl)c2)n1 [AC10090, 3-chloro-N-(1-(6-ethyl-4-oxo-1,4-dihydropyrimidin-2-yl)-3-methyl-1H-pyrazol-5-yl)benzamide]",IC50,[1],6.9 µM
same,Max AC8 Inh (%),[1],48%
same,IC50,[2]; [3],400 nM
"CCc1cc(=O)[nH]c(-n2nc(C)cc2NC(=O)c2ccccn2)n1 [AC10093, N-(1-(6-ethyl-4-oxo-1,4-dihydropyrimidin-2-yl)-3-methyl-1H-pyrazol-5-yl)picolinamide]",IC50,[1],15 µM
same,Max AC8 Inh (%),[1],46%
"CCc1cc(=O)[nH]c(-n2nc(C)cc2NC(=O)c2ccccc2C)n1 [AC10077, N-(1-(6-ethyl-4-oxo-1,4-dihydropyrimidin-2-yl)-3-methyl-1H-pyrazol-5-yl)-2-methylbenzamide]",Max AC8 Inh (%),[1],11%
same,IC50,[2]; [3],2400 nM
"CCc1cc(=O)[nH]c(-n2nc(C)cc2NC(=O)c2ccco2)n1 [AC10069, N-(1-(6-ethyl-4-oxo-1,4-dihydropyrimidin-2-yl)-3-methyl-1H-pyrazol-5-yl)furan-2-carboxamide]",Max AC8 Inh (%),[1],20%
same,IC50,[2]; [3],6100 nM
"CCc1cc(=O)[nH]c(-n2nc(C)cc2NC(=O)c2ccc(F)cc2)n1 [AC10092, N-(1-(6-ethyl-4-oxo-1,4-dihydropyrimidin-2-yl)-3-methyl-1H-pyrazol-5-yl)-4-fluorobenzamide]",IC50,[1],14 µM
same,Max AC8 Inh (%),[1],52%
same,IC50,[2]; [3],900 nM
"CCc1cc(=O)[nH]c(-n2nc(C)cc2NC(=O)c2cccc(OC)c2)n1 [AC10073, N-(1-(6-ethyl-4-oxo-1,4-dihydropyrimidin-2-yl)-3-methyl-1H-pyrazol-5-yl)-3-methoxybenzamide]",Max AC8 Inh (%),[1],5%
same,IC50,[2],1000 nM
